“Also recorded” adds a separate entry of the source.
Columns and labels:
human MM.1S MM tumors = assay: Human MM xenograft model; format: in vivo; conditions: for host survival / tumor growth: MM.1S-bearing mice, i.p., WL40 14.7 μM/kg, RA190 26.8 μM/kg; for host survival: twice weekly; for tumor growth: twice weekly for 18 days
Description: FIG. 23B are Kaplan-Meier plots which show survival of mice. […] The lysates were subjected to the immunoblot analysis using anti-polyubiquitin, anti-cleaved-caspase-8, or anti-β-actin Abs. FIG. 23D show tumor sections from the vehicle control, and WL40-treated mice that were stained with anti-polyubiquitin, Ki67, caspase-3 (cleaved form), and CD31 antibodies. Scale bar, 10 μm.
Animal model studies were performed as described previously.^32, 33, 36 Briefly, CB17 SCID mice were subcutaneously inoculated with 5.0×10^6 MM.1S cells. When tumors were measurable (100 mm^3) at approximately 3 weeks after MM-cell injection, mice (10 mice/group) were treated on a twice-weekly schedule with vehicle alone, WL40, or RA190. Mice were euthanized when tumor volume reached institutional limit (2000 mm^3). All animal experiments protocols were approved by and conformed to the relevant regulatory standards of the Institutional Animal Care and Use Committee at the Dana-Farber Cancer Institute.
Tumors were harvested from WL40-treated and control animals. Tumor sections were fixed and paraffin embedded for immunostaining to detect growth inhibition (Ki67), apoptosis (cleaved caspase-3), poly-ubiquitination (PolyU), and angiogenesis (CD31), as described previously.^32, 34 Tumor protein lysates from control vehicle- and WL40-treated mice were analyzed for caspase-8, poly-Ubiquitin or β-actin level using immunoblot analyses.
To fully understand the therapeutic potential of the RPN13 degrader, the in vivo efficacy of WL40 was evaluated using the human plasmacytoma xenograft mouse model.^3, 34 This model has been useful in validating novel anti-MM therapies bortezomib, carfilzomib, ixazomib, lenalidomide, and pomalidomide, which have translated to clinical trials and FDA approval.

RPN13 = RPN13 (Homo sapiens, UniProt Q16186); assay: Rpn13 immunoblot in MM.1S cells; format: cell-based; set-up: endogenous in cells; host or cells: MM.1S; MM.1S-CRBN KO; RPMI-8226; ANBL6.BR; conditions: MM.1S cells; for Rpn13 levels (immunoblot): 200 nM, 400 nM, 800 nM, 4, 8, 16 hours
Description: Protein lysates were loaded on SDS-PAGE and transferred to PVDF membrane, and then immunoblotted with anti-alpha tubulin and Rpn13 antibodies.
In FIG. 17, MM.1S cells were treated with RA190 or JQRA at 200 nM and 400 nM, respectively, for 48 hours; and treated with RA190 or JQRA at 200 nM and 800 nM, respectively, for 48 hours. Protein lysates were loaded on SDS-PAGE and transferred to PVDF membrane, and then immunoblotted with anti-alpha tubulin and Rpn13 antibodies.
MM.1S cells, which were treated with DMSO control, bortezomib, or WL40 at indicated concentration for 3 hours; protein lysates were analyzed for different proteasome activities (CT-L, chymotrypsin-like; T-L, trypsin-like; C-L, caspase-like). FIG. 20B is a bar graph showing percent proteasome activity after normalization with DMSO control (mean±SD; n=3). Recombinant 20S proteasome was incubated with DMSO, bortezomib, or WL40 for 30 minutes, followed by assessment of the above-noted proteasome activities. FIG. 20C MM.1S cells were pretreated with exemplary proteasome inhibitor MG132 (10 μM) for 1 hour, followed by addition of WL40 (400 nM) for 8 hours. […] Total protein lysates were subjected to immunoblots for Rpn13 and α-tubulin. […] FIG. 20E ANBL6.BR cells were treated with WL40 (400 nM) or RA190 (500 nM) for 16 hours; protein lysates were subjected to immunoblot analysis using anti-Rpn13 or anti-β-actin Abs.
Cellular protein extracts were prepared using RIPA lysis buffer (50 mM Tris-HCl, 150 mM NaCl, 1% NP-40, 0.5% sodium deoxycholate, and 0.1% SDS). Protein lysates were subjected to immunoblotting using antibodies against poly ADP ribose polymerase (PARP, BD Bioscience Pharmingen, San Diego, Calif.), caspase 3, caspase 8, p53 (Santa Cruz Biotechnology), caspase 9, p-eIF2a (Abeam, Cambridge, Mass.), caspase 7, cyclin B1, CDC25C, CDCl2, p21, Rpn13, PERK, BIP, Calnexin, GFP, LC3A/B, α-tubulin (Cell Signaling, Beverly, Mass.), polyubiquitin (Enzo Life Sciences, Inc., Farmingdale, N.Y.), or β-actin (Sigma-Aldrich, St. Louis, Mo.).
Next, it was examined whether WL40 decreases cellular Rpn13 levels in MM cells. MM.1S cells were treated with various concentrations of WL40 (20 0 nM, 400 nM, or 800 nM) for 4 hours, 8 hours, and 16 hours; protein lysates were then analyzed for Rpn13 levels using immunoblot analysis. […] Decrease in Rpn13 levels was detectable as early as 8 hours after WL40 treatment and maximally (95%) reduced at 16 hours. Rpn13 protein level reduction was not observed with RA190 treatment (FIG. 19E, lower panel). There was no change in protein levels of tubulin, used as a loading control (FIG. 19E). To further corroborate the findings, MM.1S cells were treated with WL40, and then analyzed intracellular alterations in Rpn13 using flow cytometry.

CRBN-DDB1 = CRBN-DDB1 (Homo sapiens, UniProt Q96SW2); assay: CRBN AlphaScreen (displacement of biotinylated-pomalidomide probe); format: binding; conditions: in vitro AlphaScreen; thalidomide and lenalidomide as positive controls
MM.1S CRBN KO cells = assay: MM.1S CRBN KO cell viability; format: cell-based, Human
Excerpt: FIGS. […] Wst-1 assay was used to test cell viability.
The experiment was repeated twice and JQRA concentration was increased (as indicated) at the second time.

MM.1S cells = assay: MM.1S cell viability (WST); conditions: for combination effect on viability (isobologram, CI): 48 hours, WST
Description: FIGS. 4A and 4B show multiple myeloma 1S (MM.1S) cells treated with RA190, WL40, and WL44 at the indicated concentrations for 24 hours. Wst-1 assay was used to test cell viability.
In FIG. 13B, multiple myeloma cells (MM.1S) were treated with RA190 or compound JQRA at the indicated concentrations for 72 hours, and the percentage of viable cells was measured.
Purified CD138^+ patient MM cells, which were treated with DMSO control or WL40 at indicated concentrations for 48 hours, followed by assessment for cell viability using CellTiter-Glo assay (mean±SD of triplicate cultures; p<0.001). […] Normal PBMCs from healthy donors were treated with DMSO control or WL40 at indicated concentrations for 48 hours, and then analyzed for cell viability using CellTiter-Glo assay (mean±SD of quadruplicate cultures). […] MM.1S cells were cultured with or without patient BMSCs in the presence or absence of WL40 for 48 hours, and cell proliferation was measured by WST assay (mean±SD; n=3; p<0.0001). […] MM.1S cells were cultured with or without patient pDCs in the presence or absence of WL40 for 48 hours, and cell proliferation was measured by WST assay (mean±SD; n=3; p<0.0001).

RPN13, sequence (Q16186 whole entry): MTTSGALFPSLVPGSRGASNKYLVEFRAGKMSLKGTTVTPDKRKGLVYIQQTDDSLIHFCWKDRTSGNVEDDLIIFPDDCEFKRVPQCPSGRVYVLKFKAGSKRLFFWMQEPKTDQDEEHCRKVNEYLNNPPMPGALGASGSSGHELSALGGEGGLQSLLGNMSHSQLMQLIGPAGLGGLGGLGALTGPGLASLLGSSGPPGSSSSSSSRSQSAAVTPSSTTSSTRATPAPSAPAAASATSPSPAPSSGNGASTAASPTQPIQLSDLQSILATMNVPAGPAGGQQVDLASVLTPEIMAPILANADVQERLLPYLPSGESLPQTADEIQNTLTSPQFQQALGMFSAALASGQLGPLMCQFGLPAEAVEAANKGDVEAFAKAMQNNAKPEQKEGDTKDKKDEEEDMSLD
CRBN-DDB1, sequence (Q96SW2 whole entry): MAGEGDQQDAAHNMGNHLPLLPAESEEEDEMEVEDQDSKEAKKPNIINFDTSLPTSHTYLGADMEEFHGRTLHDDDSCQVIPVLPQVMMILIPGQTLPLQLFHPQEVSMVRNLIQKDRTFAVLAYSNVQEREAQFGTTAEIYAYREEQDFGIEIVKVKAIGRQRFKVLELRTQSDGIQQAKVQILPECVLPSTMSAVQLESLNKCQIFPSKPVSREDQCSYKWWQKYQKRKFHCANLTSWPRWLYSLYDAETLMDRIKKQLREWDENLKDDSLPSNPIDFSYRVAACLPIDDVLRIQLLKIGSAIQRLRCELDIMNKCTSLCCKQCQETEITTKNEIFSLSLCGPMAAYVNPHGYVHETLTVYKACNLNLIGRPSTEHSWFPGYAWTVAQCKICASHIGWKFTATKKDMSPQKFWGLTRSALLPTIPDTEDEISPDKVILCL
CRBN-DDB1, sequence (Q16531 whole entry partner): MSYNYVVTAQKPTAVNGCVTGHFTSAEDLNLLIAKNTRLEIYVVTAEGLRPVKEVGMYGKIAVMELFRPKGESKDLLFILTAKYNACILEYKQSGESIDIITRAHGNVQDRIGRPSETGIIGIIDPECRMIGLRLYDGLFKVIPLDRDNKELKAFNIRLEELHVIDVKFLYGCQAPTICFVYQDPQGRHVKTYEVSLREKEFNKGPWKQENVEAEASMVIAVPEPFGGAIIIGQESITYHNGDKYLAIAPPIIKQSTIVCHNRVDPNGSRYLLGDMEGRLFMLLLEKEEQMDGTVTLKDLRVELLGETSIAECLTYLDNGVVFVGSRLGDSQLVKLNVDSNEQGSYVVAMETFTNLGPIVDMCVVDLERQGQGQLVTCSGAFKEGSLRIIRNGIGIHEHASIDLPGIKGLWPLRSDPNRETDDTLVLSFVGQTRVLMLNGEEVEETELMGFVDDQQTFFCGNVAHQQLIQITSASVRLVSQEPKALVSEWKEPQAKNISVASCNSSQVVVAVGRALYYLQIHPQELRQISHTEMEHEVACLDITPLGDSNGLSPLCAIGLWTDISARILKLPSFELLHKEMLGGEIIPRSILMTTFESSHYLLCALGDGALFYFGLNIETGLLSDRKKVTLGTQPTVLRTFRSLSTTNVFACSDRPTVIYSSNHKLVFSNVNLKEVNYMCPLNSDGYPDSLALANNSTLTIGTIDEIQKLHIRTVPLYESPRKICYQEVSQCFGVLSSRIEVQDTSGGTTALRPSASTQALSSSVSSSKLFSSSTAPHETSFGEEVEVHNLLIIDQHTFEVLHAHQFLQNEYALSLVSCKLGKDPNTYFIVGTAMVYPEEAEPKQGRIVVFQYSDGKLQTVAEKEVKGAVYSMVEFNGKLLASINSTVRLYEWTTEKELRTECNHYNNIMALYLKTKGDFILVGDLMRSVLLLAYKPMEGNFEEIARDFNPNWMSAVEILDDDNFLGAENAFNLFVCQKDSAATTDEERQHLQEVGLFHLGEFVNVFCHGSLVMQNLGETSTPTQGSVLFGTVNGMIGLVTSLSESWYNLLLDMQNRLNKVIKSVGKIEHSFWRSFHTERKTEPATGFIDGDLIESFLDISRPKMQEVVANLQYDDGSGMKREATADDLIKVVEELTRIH

Row | SMILES | host survival (human MM.1S MM tumors) | tumor growth (human MM.1S MM tumors) | tolerability (human MM.1S MM tumors; WL40-treated mice) | body weight loss (human MM.1S MM tumors; WL40-treated mice (data not shown)) | PolyUb proteins in harvested tumors (human MM.1S MM tumors; relative to tumors from control mice) | angiogenesis in harvested tumors (CD31) (human MM.1S MM tumors; tumor sections) | apoptosis in harvested tumors (cleaved caspase-3) (human MM.1S MM tumors; tumor sections) | proliferation in harvested tumors (Ki67) (human MM.1S MM tumors; tumor sections) | Rpn13 levels (immunoblot) (RPN13) | time at which decrease in Rpn13 levels is detectable (RPN13; after WL40 treatment) [h] | maximal reduction of Rpn13 levels (RPN13; at 16 hours) [%] | CRBN binding (CRBN-DDB1) | cell viability (MM.1S CRBN KO cells; MM.1S-CRBN KO, 24 hours, Wst-1) | cell viability IC50 (MM.1S cells; 24 hours, Wst-1) | combination effect on viability (isobologram, CI) (MM.1S cells; WL40 plus bortezomib) | combination effect on viability (isobologram, CI) (MM.1S cells; WL40 plus lenalidomide) | combination effect on viability (isobologram, CI) (MM.1S cells; WL40 plus pomalidomide) | cytotoxicity (percentage of viable cells) (MM.1S CRBN KO cells; CRBN-KO cells, 72 hours) | cytotoxicity (percentage of viable cells) (MM.1S cells; 72 hours)
1 | O=C1CCC(N2C(=O)c3cccc(NCCOCCOCCOCCC(=O)N[C@@H](Cc4ccccc4)C(=O)N4C/C(=C\c5ccc(Cl)c(Cl)c5)C(=O)/C(=C/c5ccc(Cl)c(Cl)c5)C4)c3C2=O)C(=O)N1 (some centres unmarked) [WL40] | prolongs host survival | inhibits xenografted human MM cell growth; also recorded: more potent in vivo anti-MM activity | well tolerated | no significant weight loss | increased accumulation of PolyUb proteins | blocks angiogenesis | induces apoptosis | decreases proliferation | degrade Rpn13; also recorded: marked decrease in Rpn13 levels | 8 | 95 | interacts with the E3 ubiquitin receptor CRBN | decrease cell viability | lower IC50 compared to compound RA190 | synergistic anti-MM activity | synergistic anti-MM activity | synergistic anti-MM activity | – | –
2 | Cl.N[C@@H](Cc1ccccc1)C(=O)N1C/C(=C/c2ccc(Cl)c(Cl)c2)C(=O)/C(=C\c2ccc(Cl)c(Cl)c2)C1 [RA190, reference compound] | extends mice survival | attenuates MM tumor progression | – | – | – | – | – | – | not observed | – | – | did not show any binding to CRBN | – | – | – | – | – | more robust MM cytotoxicity | stronger MM cytotoxicity compared to exemplary compound JQRA; also recorded: more robust MM cytotoxicity

Source: patent US11702402B2, “Small molecules that block proteasome-associated ubiquitin receptor RPN13 function and uses thereof” (DANA-FARBER CANCER INSTITUTE, INC., priority 2018, dated 2023)
